Values of other authors, collected in US8613858B2, “Separation process” (Dupont Nutrition Biosciences APS, priority 2005, dated 2013).

What was measured:
[1] = characteristic properties of model compounds
[2] = characteristic properties of model compounds; remark: listed apart in the source

| LogPOW [2] | SMILES | Water solubility [1] |
| --- | --- | --- |
| −1.67 | O=C(O)CC(O)(CC(=O)O)C(=O)O [Citric acid] |  |
| −1.76 | OCC(O)CO [Glycerol] |  |

| SMILES | LogPOW [2] | Water solubility [1] |
| --- | --- | --- |
| C[N+](C)(C)CC(=O)O [Betaine] | −2.93 | 611 mg/mL |
